{
  "source": "patent US9957249B2",
  "about": "“Saturated nitrogen and N-acylated heterocycles potentiating the activity of an active antibiotic against Mycobacteria” (Universite de Droit et de la Sante de Lille 2, priority 2012, dated 2018)",
  "key": {"M. tuberculosis": {"tested_on": "M. tuberculosis", "assay": "Potentiation of ethionamide cell test (High Content Screening)", "assay_type": "cell-based", "details": "ligand concentration necessary to potentiate ten times the activity of ethionamide, constant ethionamide 0.1 μg/mL (1/10 of its CMI99), 50% inhibition of bacterial growth", "method": "Potentiation of Ethionamide Cell Test\nThe test used made it possible to ascertain that these compounds were capable of potentiating the bactericide activity of ethionamide on M. tuberculosis alone. This test was a “High Content Screening” (HCS) or dense content screening test. HCS tests were performed on cell cultures that enable certain phenotypic features of a microorganism (e.g. a bacterium) in a given environment to be studied. The phenotypic changes observed can range from the increase (or decrease) of the production of certain marked proteins to the modification of the morphology of the microorganism under consideration. The method is described in the following publication: “Ethionamide Boosters: Synthesis, Biological Activity, and Structure-Activity Relationships of a Series of 1,2,4-Oxadiazole EthR Inhibitors”, M. Flipo et al., Journal of Medicinal Chemistry, 2011, 54(8), 2994-3010.\nThis test aims to determine the ligand concentration necessary to potentiate ten times the activity of ethionamide (ETH).\nTo measure the ligand concentration necessary for potentiating ten times the activity of ETH, a constant concentration of ethionamide (0.1 μg/mL corresponding to 1/10 of its CMI99) was chosen. By varying the ligand concentration, the concentration necessary to inhibit 50% of the bacterial growth, i.e. the concentration necessary to potentiate ten times the activity of ethionamide, was determined. This concentration was denoted EC50."}, "[1]": {"assay": "Measurement of the solubility", "assay_type": "physicochemical", "details": "aqueous buffer, kinetic from dmso stock; PBS at pH 7.4, 24 h at RT, LC-MS, ratio of mass signals PBS/MeOH", "method": "Measurement of the Solubility\n40 μL of a solution at 10 mM in DMSO of the sample was added to 1.96 mL MeOH or PBS at pH 7.4. The samples were then agitated during 24 h at RT, centrifuged during 5 min and then filtrated on filters of 0.45 μm size. 20 μL of each solution were then added to 180 μL MeOH and then analyzed by LC-MS. The solubility was determined as ratio of the surfaces of the mass signals PBS/MeOH."}},
  "note": "pEC50: −log10 of the molar value.",
  "data": [
    {"compound": "O=C(CCC(F)(F)F)N1CCC(c2ccccc2)CC1", "note": "[BDM_44647]", "values": [
      {"measurement": "pEC50", "setting": "M. tuberculosis; Table I", "result": 9.10},
      {"measurement": "pEC50", "setting": "M. tuberculosis; Table III", "result": 9.10},
      {"measurement": "solubility at 24 h", "setting": "[1]", "result": 50.4, "unit": "µg/mL"}
    ]},
    {"compound": "O=C(CCCC(F)(F)F)N1CCC(c2ccccc2)CC1", "note": "[BDM_44648]", "values": [
      {"measurement": "pEC50", "setting": "M. tuberculosis; Table I", "result": "> 8.00"},
      {"measurement": "pEC50", "setting": "M. tuberculosis; Table III", "result": "> 8.00"},
      {"measurement": "solubility at 24 h", "setting": "[1]", "result": 42.9, "unit": "µg/mL"}
    ]},
    {"compound": "CC(C)CCC(=O)N1CCC(c2ccccc2)CC1", "note": "[BDM_44649]", "values": [
      {"measurement": "pEC50", "setting": "M. tuberculosis; Table II", "result": 7.22},
      {"measurement": "pEC50", "setting": "M. tuberculosis; Table III", "result": 7.22}
    ]},
    {"compound": "O=C(CCC(F)(F)F)N1CCC(c2ccc(F)cc2)CC1", "note": "[BDM_44751]", "values": [
      {"measurement": "pEC50", "setting": "M. tuberculosis; Table I", "result": 9.00},
      {"measurement": "pEC50", "setting": "M. tuberculosis; Table III", "result": 9.00},
      {"measurement": "solubility at 24 h", "setting": "[1]", "result": 51.9, "unit": "µg/mL"}
    ]},
    {"compound": "O=C(CCC(F)(F)F)N1CCN(c2ccccc2)CC1", "note": "[BDM_44808]", "values": [
      {"measurement": "pEC50", "setting": "M. tuberculosis; Table III", "result": 8.00}
    ]},
    {"compound": "O=C(CCCC(F)(F)F)N1CCN(c2ccccc2)CC1", "note": "[BDM_44809]", "values": [
      {"measurement": "pEC50", "setting": "M. tuberculosis; Table III", "result": 7.15}
    ]},
    {"compound": "CC(C)CCC(=O)N1CCN(c2ccccc2)CC1", "note": "[BDM_44810]", "values": [
      {"measurement": "pEC50", "setting": "M. tuberculosis; Table II", "result": 7.22},
      {"measurement": "pEC50", "setting": "M. tuberculosis; Table III", "result": 7.22}
    ]},
    {"compound": "O=C(CCC(F)(F)F)N1CCN(c2ccc(Cl)cc2)CC1", "note": "[BDM_44811]", "values": [
      {"measurement": "pEC50", "setting": "M. tuberculosis; Table III", "result": 8.00}
    ]},
    {"compound": "O=C(CCCC(F)(F)F)N1CCN(c2ccc(Cl)cc2)CC1", "note": "[BDM_44812]", "values": [
      {"measurement": "pEC50", "setting": "M. tuberculosis; Table III", "result": "> 7.70"}
    ]},
    {"compound": "CC(C)CCC(=O)N1CCN(c2ccc(Cl)cc2)CC1", "note": "[BDM_44813]", "values": [
      {"measurement": "pEC50", "setting": "M. tuberculosis; Table II", "result": 7.00},
      {"measurement": "pEC50", "setting": "M. tuberculosis; Table III", "result": 7.00}
    ]},
    {"compound": "O=C(CCC(F)(F)F)N1CCN(c2ccc(F)cc2)CC1", "note": "[BDM_44819]", "values": [
      {"measurement": "pEC50", "setting": "M. tuberculosis; Table III", "result": 7.57}
    ]},
    {"compound": "O=C(CCCC(F)(F)F)N1CCN(c2ccc(F)cc2)CC1", "note": "[BDM_44820]", "values": [
      {"measurement": "pEC50", "setting": "M. tuberculosis; Table III", "result": 6.85}
    ]},
    {"compound": "CC(C)CCC(=O)N1CCN(c2ccc(F)cc2)CC1", "note": "[BDM_44821]", "values": [
      {"measurement": "pEC50", "setting": "M. tuberculosis; Table II", "result": 7.00},
      {"measurement": "pEC50", "setting": "M. tuberculosis; Table III", "result": 7.00}
    ]},
    {"compound": "O=C(CCC(F)(F)F)N1CCC(c2ccc(O)cc2)CC1", "note": "[BDM_45572]", "values": [
      {"measurement": "pEC50", "setting": "M. tuberculosis; Table III", "result": 6.55}
    ]},
    {"compound": "O=C(CCC(F)(F)F)N1CCC(c2cccc(F)c2)CC1", "note": "[BDM_70531]", "values": [
      {"measurement": "pEC50", "setting": "M. tuberculosis; Table III", "result": 9.10}
    ]},
    {"compound": "O=C(CCC(F)(F)F)N1CCC(c2ccccc2Cl)CC1", "note": "[BDM_70534]", "values": [
      {"measurement": "pEC50", "setting": "M. tuberculosis; Table III", "result": 6.96}
    ]},
    {"compound": "O=C(CCC(F)(F)F)N1CCC(c2ccc(Cl)cc2)CC1", "note": "[BDM_70535]", "values": [
      {"measurement": "pEC50", "setting": "M. tuberculosis; Table III", "result": 6.92}
    ]},
    {"compound": "O=C(CCC(F)(F)F)N1CCC(c2ccccc2C(F)(F)F)CC1", "note": "[BDM_70536]", "values": [
      {"measurement": "pEC50", "setting": "M. tuberculosis; Table III", "result": 6.11}
    ]},
    {"compound": "COc1ccc(C2CCN(C(=O)CCC(F)(F)F)CC2)cc1", "note": "[BDM_70537]", "values": [
      {"measurement": "pEC50", "setting": "M. tuberculosis; Table III", "result": 8.70}
    ]},
    {"compound": "COc1cccc(C2CCN(C(=O)CCC(F)(F)F)CC2)c1", "note": "[BDM_70538]", "values": [
      {"measurement": "pEC50", "setting": "M. tuberculosis; Table III", "result": 6.85}
    ]},
    {"compound": "COc1ccccc1C1CCN(C(=O)CCC(F)(F)F)CC1", "note": "[BDM_70540]", "values": [
      {"measurement": "pEC50", "setting": "M. tuberculosis; Table III", "result": 6.85}
    ]},
    {"compound": "O=C(CCC(F)(F)F)N1CCC(c2ccncc2)CC1", "note": "[BDM_70542]", "values": [
      {"measurement": "pEC50", "setting": "M. tuberculosis; Table III", "result": 6.48}
    ]},
    {"compound": "O=C(CCC(F)(F)F)N1CCC(c2cccc(C(F)(F)F)c2)CC1", "note": "[BDM_70546]", "values": [
      {"measurement": "pEC50", "setting": "M. tuberculosis; Table III", "result": 9.00}
    ]},
    {"compound": "Cc1ccc(C2CCN(C(=O)CCC(F)(F)F)CC2)cc1", "note": "[BDM_70663]", "values": [
      {"measurement": "pEC50", "setting": "M. tuberculosis; Table III", "result": 7.59}
    ]},
    {"compound": "Cc1cccc(C2CCN(C(=O)CCC(F)(F)F)CC2)c1", "note": "[BDM_70664]", "values": [
      {"measurement": "pEC50", "setting": "M. tuberculosis; Table III", "result": 9.00}
    ]},
    {"compound": "Cc1ccccc1C1CCN(C(=O)CCC(F)(F)F)CC1", "note": "[BDM_70665]", "values": [
      {"measurement": "pEC50", "setting": "M. tuberculosis; Table III", "result": 7.46}
    ]},
    {"compound": "O=C(CCC(F)(F)F)N1CCC(c2ccccc2F)CC1", "note": "[BDM_70666]", "values": [
      {"measurement": "pEC50", "setting": "M. tuberculosis; Table III", "result": 9.00}
    ]},
    {"compound": "O=C(CCC(F)(F)F)N1CCC(c2ccc(C(F)(F)F)cc2)CC1", "note": "[BDM_70667]", "values": [
      {"measurement": "pEC50", "setting": "M. tuberculosis; Table III", "result": 6.52}
    ]},
    {"compound": "O=C(CCC(F)(F)F)N1CCC(c2cccc(Cl)c2)CC1", "note": "[BDM_70668]", "values": [
      {"measurement": "pEC50", "setting": "M. tuberculosis; Table III", "result": 9.30}
    ]},
    {"compound": "O=C(CCC(F)(F)F)N1CCN(c2ccc(F)cc2F)CC1", "note": "[BDM_70669]", "values": [
      {"measurement": "pEC50", "setting": "M. tuberculosis; Table III", "result": 7.68}
    ]},
    {"compound": "O=C(CCC(F)(F)F)N1CCC(Cc2ccccc2)CC1", "note": "[BDM_70670]", "values": [
      {"measurement": "pEC50", "setting": "M. tuberculosis; Table III", "result": 7.27}
    ]},
    {"compound": "O=C(CCC(F)(F)F)N1CCC(c2ccc(Cl)c(Cl)c2)CC1", "note": "[BDM_70716]", "values": [
      {"measurement": "pEC50", "setting": "M. tuberculosis; Table III", "result": 7.60}
    ]},
    {"compound": "O=C(CCC(F)(F)F)N1CCC(c2ccc(F)cc2)C1", "note": "(stereo not shown) [BDM_70717]", "values": [
      {"measurement": "pEC50", "setting": "M. tuberculosis; Table I", "result": 8.05},
      {"measurement": "pEC50", "setting": "M. tuberculosis; Table III", "result": 8.05}
    ]},
    {"compound": "O=C(CCC(F)(F)F)N1CCN(Cc2ccccc2)CC1", "note": "[BDM_70719]", "values": [
      {"measurement": "pEC50", "setting": "M. tuberculosis; Table III", "result": 5.96}
    ]},
    {"compound": "O=C(CCC(F)(F)F)N1CCC(c2c(F)cc(F)cc2F)CC1", "note": "[BDM_71148]", "values": [
      {"measurement": "pEC50", "setting": "M. tuberculosis; Table III", "result": 9.00}
    ]}
  ]
}
